Source: US7491710B2 (priority 2003, dated 2009)
Read-outs that look alike come from different tables or passages of the source.

Legend:
Experiment in all cases: biochemical
human FAK = human FAK (Homo sapiens, UniProt Q05397)
Aurora2 kinase = Aurora2 kinase (Homo sapiens, UniProt O14965)
human Tie2 = human Tie2 (Homo sapiens, UniProt Q02763)
human KDR enzyme = human KDR enzyme (Homo sapiens, UniProt P35968)
CDK2/cyclin E = CDK2/cyclin E (Homo sapiens, UniProt P24941)

Sequence of human Tie2 (Q02763 776-1124): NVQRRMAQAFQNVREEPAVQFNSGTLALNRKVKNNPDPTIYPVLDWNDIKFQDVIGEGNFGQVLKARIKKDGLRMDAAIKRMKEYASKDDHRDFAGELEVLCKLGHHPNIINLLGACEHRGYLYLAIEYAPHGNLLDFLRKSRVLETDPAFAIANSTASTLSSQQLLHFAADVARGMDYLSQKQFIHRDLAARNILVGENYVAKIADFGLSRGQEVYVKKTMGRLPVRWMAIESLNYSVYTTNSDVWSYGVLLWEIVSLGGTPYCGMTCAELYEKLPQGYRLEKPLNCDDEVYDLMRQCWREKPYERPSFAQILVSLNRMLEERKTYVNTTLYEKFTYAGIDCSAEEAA
Sequence of human KDR enzyme (P35968 786-1356): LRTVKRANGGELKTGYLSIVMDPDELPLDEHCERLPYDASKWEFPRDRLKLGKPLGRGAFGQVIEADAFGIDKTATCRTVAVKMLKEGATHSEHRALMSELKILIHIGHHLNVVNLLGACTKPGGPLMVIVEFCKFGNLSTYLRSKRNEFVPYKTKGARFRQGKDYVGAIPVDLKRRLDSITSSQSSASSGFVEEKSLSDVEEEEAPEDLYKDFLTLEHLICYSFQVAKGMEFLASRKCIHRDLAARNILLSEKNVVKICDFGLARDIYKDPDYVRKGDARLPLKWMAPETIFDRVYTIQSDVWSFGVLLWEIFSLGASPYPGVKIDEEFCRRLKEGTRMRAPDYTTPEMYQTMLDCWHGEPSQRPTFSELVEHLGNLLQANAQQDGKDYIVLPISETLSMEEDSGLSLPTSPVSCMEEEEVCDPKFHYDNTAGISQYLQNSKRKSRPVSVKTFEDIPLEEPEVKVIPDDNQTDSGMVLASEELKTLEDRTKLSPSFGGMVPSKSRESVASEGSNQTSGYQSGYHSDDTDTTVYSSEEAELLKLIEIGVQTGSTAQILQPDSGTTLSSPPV
Sequence of Aurora2 kinase (O14965 whole entry): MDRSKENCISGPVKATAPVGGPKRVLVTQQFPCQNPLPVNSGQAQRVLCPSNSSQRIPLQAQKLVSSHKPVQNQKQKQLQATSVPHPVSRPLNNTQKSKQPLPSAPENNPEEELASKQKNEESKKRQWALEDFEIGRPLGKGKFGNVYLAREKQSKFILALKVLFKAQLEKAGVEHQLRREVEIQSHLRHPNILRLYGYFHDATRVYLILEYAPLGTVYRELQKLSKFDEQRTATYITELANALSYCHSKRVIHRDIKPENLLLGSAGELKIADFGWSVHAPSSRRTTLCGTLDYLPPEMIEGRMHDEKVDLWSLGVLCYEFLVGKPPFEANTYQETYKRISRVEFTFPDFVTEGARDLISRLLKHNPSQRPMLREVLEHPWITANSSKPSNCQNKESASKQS
Sequence of human FAK (Q05397 whole entry): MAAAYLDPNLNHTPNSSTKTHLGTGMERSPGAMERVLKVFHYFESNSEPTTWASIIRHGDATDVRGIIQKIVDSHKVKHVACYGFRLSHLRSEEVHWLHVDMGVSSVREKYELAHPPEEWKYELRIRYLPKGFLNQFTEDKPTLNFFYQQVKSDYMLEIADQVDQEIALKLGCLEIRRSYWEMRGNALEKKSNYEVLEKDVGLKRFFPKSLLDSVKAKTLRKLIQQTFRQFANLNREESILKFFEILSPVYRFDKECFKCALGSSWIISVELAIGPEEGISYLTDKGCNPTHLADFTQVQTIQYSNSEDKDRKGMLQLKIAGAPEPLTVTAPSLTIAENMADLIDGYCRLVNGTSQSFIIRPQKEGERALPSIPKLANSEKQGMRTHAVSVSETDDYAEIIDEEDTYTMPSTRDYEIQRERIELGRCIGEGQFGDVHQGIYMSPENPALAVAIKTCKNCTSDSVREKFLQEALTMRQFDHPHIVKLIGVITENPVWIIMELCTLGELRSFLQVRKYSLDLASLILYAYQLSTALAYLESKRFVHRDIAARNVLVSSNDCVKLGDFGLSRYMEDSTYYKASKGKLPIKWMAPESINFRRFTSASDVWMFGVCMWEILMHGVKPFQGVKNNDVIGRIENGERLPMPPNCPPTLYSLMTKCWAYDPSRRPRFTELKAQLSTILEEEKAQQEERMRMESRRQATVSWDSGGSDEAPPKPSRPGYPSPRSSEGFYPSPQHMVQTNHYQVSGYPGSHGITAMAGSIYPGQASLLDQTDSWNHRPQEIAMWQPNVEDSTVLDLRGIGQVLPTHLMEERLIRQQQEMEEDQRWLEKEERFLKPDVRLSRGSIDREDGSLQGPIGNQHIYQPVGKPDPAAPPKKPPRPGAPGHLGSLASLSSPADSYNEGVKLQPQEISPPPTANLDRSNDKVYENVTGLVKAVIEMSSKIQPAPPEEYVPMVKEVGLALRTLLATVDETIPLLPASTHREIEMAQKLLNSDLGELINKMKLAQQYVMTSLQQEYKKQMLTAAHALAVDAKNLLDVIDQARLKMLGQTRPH

Compound | IC50 (human FAK) [µM] | IC50 (Aurora2 kinase) [µM] | IC50 (human Tie2) [µM] | IC50 (human KDR enzyme) [µM] | IC50 (CDK2/cyclin E) [µM] | IC50 (Aurora2 kinase; read-out: Au2 IC50) [µM] | IC50 (CDK2/cyclin E; read-out: CDK2 IC50) [µM]
O=P(O)(Oc1ccc2[nH]nc(-c3cc4ccccc4[nH]3)c2c1)c1ccccc1 [Example 33, Phenylphosphonic acid mono-[3-(1H-indol-2-yl)-1H-indazol-5-yl]ester] | 0.316 | 0.01 | 0.017 | 0.577 | 0.291 |  | 
CP(=O)(Oc1ccc2[nH]nc(-c3cc4cc(OCCN5CCOCC5)ccc4[nH]3)c2c1)c1ccccc1 (stereo not drawn) [Example 05, Methylphenylphosphinic acid 3-[5-(2-morpholin-4-ylethoxy)-1H-indol-2-yl]-1H-indazol-5-yl ester] | 0.048 | 0.015 | 0.011 | 0.141 | 0.394 |  | 
O=P(OCc1ccccc1)(Oc1ccc2[nH]nc(-c3cc4ccccc4[nH]3)c2c1)c1ccccc1 (stereo not drawn) [Example 08, Phenylphosphonic acid 3-(1H-indol-2-yl)-1H-indazol-5-yl ester benzyl ester] | 8.3 | 0.053 | 0.13 | 5.4 | 3.7 |  | 
CCOP(=O)(Oc1ccc2[nH]nc(-c3cc4nc(OC)ccc4[nH]3)c2c1)c1ccccc1 (stereo not drawn) [Example 23, Phenylphosphonic acid ethyl ester 3-(5-methoxy-1H-pyrrolo[3,2-b]pyridin-2-yl)-1H-indazol-5-yl ester] |  | 0.024 | 0.03 | 0.442 | 0.249 |  | 
O=P(Oc1ccc2[nH]nc(/C=C/c3ccccc3)c2c1)(c1ccccc1)c1ccccc1 [Example 02, Diphenylphosphinic acid 3-((E)-styryl)-1H-indazol-5-yl ester] | 3.53 | 0.075 | 0.518 | 0.508 | 0.991 |  | 
COc1ccc2[nH]c(-c3n[nH]c4ccc(OP(=O)(OC)c5ccccc5)cc34)cc2n1 (stereo not drawn) [Example 24, phenylphosphonic acid 3-(5-methoxy-1H-pyrrolo[3,2-b]pyridin-2-yl)-1H-indazol-5-yl ester methyl ester] |  | 0.024 | 0.022 | 0.364 | 0.142 |  | 
CP(C)(=O)Oc1ccc2[nH]nc(-c3cc4ccccc4[nH]3)c2c1 [Example 18, Dimethylphosphinic acid 3-(1H-indol-2-yl)-1H-indazol-5-yl ester] | 7.57 | 0.02 | 0.033 | 0.228 | 0.033 |  | 
COP(=O)(O)c1ccc2[nH]nc(-c3cc4ccccc4[nH]3)c2c1 [Example 15, [3-(1H-Indol-2-yl)-1H-indazol-5-yl]phosphonic acid monomethyl ester] | > 10 | 0.108 | 4.08 | > 10 | 2.26 |  | 
O=P(Oc1ccc2[nH]nc(-c3cc4ccccc4[nH]3)c2c1)(c1ccccc1)c1ccccc1 [Example 04, Diphenylphosphinic acid 3-(1H-indol-2-yl)-1H-indazol-5-yl ester] | 2.9 | 0.099 | 0.022 | 1.63 | 0.586 |  | 
COP(=O)(Oc1ccc2[nH]nc(-c3cc4ccccc4s3)c2c1)c1ccccc1 (stereo not drawn) [Example 27, Phenylphosphonic acid 3-benzo[b]thiophen-2-yl-1H-indazol-5-yl ester methyl ester] |  | 0.134 | 0.353 | 1.88 | 7.56 |  | 
COP(=O)(O)c1ccc2[nH]nc(/C=C/c3ccccc3)c2c1 [Example 13, [3-((E)-styryl)-1H-indazol-5-yl]phosphonic acid monomethyl ester] |  | 0.069 |  |  |  |  | 
COP(=O)(Oc1ccc2[nH]nc(-c3cc4ccccc4s3)c2c1)c1ccccc1 (stereo not drawn) [Example 26, Phenylphosphonic acid 3-benzo[b]thiophen-2-yl-1H-indazol-5-yl ester methyl ester] |  |  |  |  |  | 0.73 | 3.24
CP(=O)(Oc1ccc2[nH]nc(/C=C/c3ccccc3)c2c1)c1ccccc1 (stereo not drawn) [Example 01, Methylphenylphosphinic acid 3-((E)-styryl)-1H-indazol-5-yl ester] | 0.279 | 0.037 | 0.04 | 0.158 | 0.234 |  | 
COP(=O)(Oc1ccc2[nH]nc(-c3cc4ccccc4[nH]3)c2c1)c1ccccc1 (stereo not drawn) [Example 06, Phenylphosphonic acid 3-(1H-indol-2-yl)-1-H-indazol-5-yl ester methyl ester] | 0.74 | 0.015 | 0.048 | 0.288 | 0.184 |  | 
COP(=O)(Oc1ccc2[nH]nc(/C=C/c3ccccc3)c2c1)c1ccccc1 (stereo not drawn) [Example 25, Phenylphosphonic acid methyl ester 3-styryl-1H-indazol-5-yl ester] |  | 0.041 |  |  | 0.578 |  | 
CCOP(=O)(OCC)c1ccc2[nH]nc(/C=C/c3ccccc3)c2c1 [Example 14, [3-((E)-styryl)-1H-indazol-5-yl]phosphonic acid diethyl ester] | 5.88 | 0.076 | 0.29 | 1.66 | 0.78 |  | 
COP(=O)(O)c1ccc2[nH]nc(-c3ccc[nH]3)c2c1 [Example 17, [3-(1H-Pyrrol-2-yl)-1H-indazol-5-yl]phosphonic acid monomethyl ester] |  | 0.77 |  |  |  |  | 
COP(=O)(Oc1ccc2[nH]nc(-c3cc4ccccc4[nH]3)c2c1)C1CCCCC1 (stereo not drawn) [Example 32, Cyclohexylphosphonic acid 3-(1H-indol-2-yl)-1H-indazol-5-yl ester methyl ester] |  | 0.026 | 0.119 | 0.999 | 1.5 |  | 
COP(=O)(Oc1ccc2[nH]nc(-c3ccc[nH]3)c2c1)c1ccccc1 (stereo not drawn) [Example 11, Phenylphosphonic acid methyl ester 3-(1H-pyrrol-2-yl)-1H-indazol-5-yl ester] |  | 0.09 | 0.229 | 1.25 | 0.199 |  | 
COP(=O)(O)c1ccc2[nH]nc(-c3cccs3)c2c1 [Example 16, (3-Thiophen-2-yl-1H-indazol-5-yl)phosphonic acid monomethyl ester] | > 10 | 2.2 | 2.21 | > 10 | > 10 |  | 
COP(=O)(OC)c1ccc2[nH]nc(/C=C/c3ccccc3)c2c1 [Example 12, [3-((E)-styryl)-1H-indazol-5-yl]phosphonic acid dimethyl ester] |  | 0.14 | 2.31 | 2.03 | 0.29 |  | 
CC(C)OP(=O)(Oc1ccc2[nH]nc(-c3cc4ccccc4[nH]3)c2c1)c1ccccc1 (stereo not drawn) [Example 07, Phenylphosphonic acid 3-(1H-indol-2-yl)-1H-indazol-5-yl ester isopropyl ester] | 9.64 | 0.024 | 0.162 | 2.05 | 0.959 |  | 
COP(=O)(Oc1ccc2[nH]ncc2c1)c1ccccc1 (stereo not drawn) [Example 10, Phenylphosphonic acid 1H-indazol-5-yl ester methyl ester] | > 10 | 9.13 | > 10 |  | > 10 |  | 
CP(=O)(Oc1ccc2[nH]nc(-c3cc4ccccc4[nH]3)c2c1)c1ccccc1 (stereo not drawn) [Example 03, Methylphenylphosphinic acid 3-(1H-indol-2-yl)-1H-indazol-5-yl ester] | 0.816 | 0.02 | 0.003 | 0.31 | 0.142 |  | 
